Data set [1] concerns human PRP (Platelet Rich Plasma), platelet aggregation induced by ADP. Nature of the data set: In vitro platelet antiaggregation activity (Born method, ADP-induced). It is filed as cell-based. Particulars: Platelet, ADP 10^-3 mM. As to the method:
The method described by Born (Nature, 194, 927, 1962) was followed for this test, based on the increase in the platelet aggregation induced by ADP. The experiment was conducted using a human PRP (Platelet Rich Plasma) pool from four healthy volunteers who had not taken any drugs for ten days. The PRP was adjusted to 280,000±20,000 and kept at ambient temperature for the entire duration of the test.
400 μl of PRP and 100 μl of MRAP2 dissolved in a physiological solution and adjusted to a pH of 7.4 were placed in plastic test tubes. Three doses of the drug in question (0.181, 0.904 and 1.818 mg/ml) were used.
Three dilutions of aspirin were prepared under the same conditions for use as a comparison drug. Two minutes after contact between the drug and PRP, the test tube was inserted into the aggregometer cell (EEI, Model 169 with Corning Recorder Mod.840). After 60 seconds, ADP (10^-3 mM) was added and the aggregation was recorded. In calculating the antiaggregation activity, reference was made to the maximum amplitude of the aggregation curved obtained with ADP. Assuming this amplitude to be 100, the amplitudes of the curves obtained with the various doses of MRAP2 and aspirin were calculated as a percentage.

The test system of another data set is platelet aggregation. Nature of the data set: In vivo platelet antiaggregation activity. More on the design: species or system male rats, Wistar strain. To be noted: rats, single oral dose 3 mg/kg. As to the method: This experiment was carried out on male rats of the Wistar strain having a weight of 320±20 grams. Both the MRAP2 and the aspirin (used as a comparison drug) were dissolved in a physiological solution, and the solutions, adjusted to pH 7.4, were administered orally in doeses of 3 mg/kg to two groups of three rats each. […] The concentration of the solution was adjusted to contain 100 mg of MRAP2 per ml. Blood samples were drawn from each animal 72 and 120 hours after treatment, for checking the platelet aggregation. In calculating the activity, the previous method was used (the average of the three maximum amplitudes of the curves obtained with the untreated rats was given the control figure of 100%).

For a further data set, the system named is stomach (gastric lesion). Nature of the data set: Ulcerogenic activity in rats after a single administration. It is filed as in vivo, male albino rats, Wistar strain. To be noted: rat, in vivo, po. As to the method:
The ulcerogenic activity of MRAP2 was tested both after a single administration of the drug, and after prolonged administration.
In these tests, a total of 70 male albino rats of Wistar strain were used, having a weight of 200±20 grams.
The MRAP2 was administered diluted in tap water.
40 rats, fasted for 18 hours before the experiment, were divided into four batches of ten animals and treated orally as follows:
3rd group: MRAP2 (50 mg/kg)
4th group: MRAP2 (125 mg/kg).
The animals were killed after six hours. The stomach was withdrawn and the gastric lesion index was evaluated in terms of an arbitrary scale of values lying between 0. and 7 based on previous models proposed by other authors.
Furthermore, the treatment was randomised in order to eliminate any possible polarisation of the data.
The points given for gastric ulcerative lesions were as follows:
(1) hyperaemia or slight capillary obstruction; or slight loss of the epithelium; or some petechiae even with pale mucosa without hyperaemia;
(2) diffuse capillary obstructions or numerous petechiae; or diffuse loss of the epithelium; of a few surface lesions;
(3) strong submucosa haemorrhage; or many petechiae and small surface lesions; or much anaemic mucosa (yellowish colour); or up to three small ulcers;
(4) general pattern as in the previous numbers, plus up to ten small ulcers; or long erosions; or up to three medium sized ulcers;
(5) pattern as in number 4, with up to 15 small ulcers; or up to 6 large ulcers;
(6) pattern as previously, with up to ten large ulcers, plus small ulcers;
(7) pattern as previously, plus up to ten large ulcers and small ulcers; cases of perforated ulcers.

`CC(=O)Oc1ccccc1C(=O)O` [aspirin, reference compound] displayed an inhibition of platelet aggregation at 181 µg/mL in data set [1] (drug 0.181 mg/ml) of 5%. The activity at 181 µg/mL in data set [1] (drug 0.181 mg/ml, serum + ADP = 100) amounted to 95%. This compound gave an inhibition of platelet aggregation at 904 µg/mL in data set [1] (drug 0.904 mg/ml) of 63%. In addition, the activity at 904 µg/mL in data set [1] (drug 0.904 mg/ml, serum + ADP = 100) amounted to 37%. The compound also gave an inhibition of platelet aggregation at 1818 µg/mL in data set [1] (drug 1.818 mg/ml) of 74%. In addition, in data set [1] (drug 1.818 mg/ml, serum + ADP = 100), the activity at 1818 µg/mL amounted to 26%. Besides, the “% platelet antiaggregation activity on day 3” value in the data set with platelet aggregation (day 3 (72 hours)) is on record as 25%. Further, the “% platelet aggregation on day 3” value in the data set with platelet aggregation (day 3 (72 hours), controls = 100) was determined as 75%. The “% platelet antiaggregation activity on day 5” value with platelet aggregation (day 5 (120 hours)) was found to be 25%. In addition, the “% platelet aggregation on day 5” value in the data set on platelet aggregation (day 5 (120 hours), controls = 100) is given as 75%.
With `CCCCC1C(=O)N(c2ccccc2)N(c2ccccc2)C1=O` [phenylbutazone, reference compound], in the data set with stomach (gastric lesion), the “incidence of ulcerative lesions (in words)” value is on record as “very marked”.

(Values after US4221805A, “Method of inducing platelet antiaggregation activity” (priority 1978, dated 1980).)
